Columns and labels:
Assay type in all cases: functional
[1] = tested on: MDA-MB-468; assay: Antitumor activity against human MDA-MB-468 cells by MTT assay
[2] = target: T1, Thioredoxin reductase (Homo sapiens) (UniProt Q16881+Q9NNW7+Q86VQ6); assay: Inhibition of human thioredoxin signalling assessed as inhibition of insulin reduction at 50 uM
[3] = target: T1, Thioredoxin reductase (Homo sapiens); assay: Inhibition of human thioredoxin signalling assessed as inhibition of insulin reduction at 10 uM
[4] = tested on: Panel NCI-60 (60 carcinoma cell lines); assay: Antitumor activity against human NCI60 cells
[5] = tested on: HCT-116; assay: Antitumor activity against human HCT116 cells by MTT assay
[6] = target: T1, Thioredoxin reductase (Homo sapiens); assay: Inhibition of human thioredoxin signalling assessed as inhibition of insulin reduction at 100 uM
[7] = tested on: HT-29; assay: Antitumor activity against human HT29 cells by MTT assay
[8] = tested on: MCF7; assay: Antitumor activity against human MCF7 cells by MTT assay
[9] = target: T1, Thioredoxin reductase (Homo sapiens); assay: Inhibition of human thioredoxin signalling assessed as inhibition of insulin reduction at 25 uM

GI50 [1]: 410 nM | inhibition [2]: 94.8% | inhibition [3]: 13.2% | GI50 [5]: 110 nM | inhibition [6]: 95.8% | GI50 [7]: 590 nM | GI50 [8]: 440 nM | inhibition [9]: 35.1%
Compound: O=C1C=CC(O)(c2nc3ccccc3s2)C=C1
GI50 [4]: 230 nM
